Experiment: gradient 5% acetonitrile 3 min, to 50% in 2 min, to 85% in 15 min, held 3 min, 100 µL/min
Conditions: column: Zorbax Extend-C18 2.1 x 50 mm; eluents: water / acetonitrile, 0.1% formic acid
Summary of the method: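 Data were gathered over 3 months by HPLC coupled to a quadrupole time-of-flight mass spectrometer, operated in positive and negative ionization mode. Mixtures of ~100 pure standards ran on a Zorbax Extend-C18 column (2.1 × 50 mm, 1.8 μm) at 100 μL/min, with water and acetonitrile each containing 0.1% formic acid and dead and dwell volumes of 40 μL and 900 μL. Retention time was read from adduct peaks picked by computer and checked manually.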

| SMILES | RP-LC retention time [s] |
| --- | --- |
| OC(CN1CCC(Cc2ccc(F)cc2)CC1)c1ccc(Cl)cc1 (stereo not drawn) | 825 |
| Brc1cccc(-c2nn3c(-c4ccccn4)nnc3s2)c1 | 860 |
| COc1cccc(CN2CCC([C@H]3[C@@H](OC)C(=O)N3C(C)C)CC2)n1 | 602 |
| COC(=O)c1ccc(S(=O)(=O)NCc2nc(C)no2)cc1 | 659 |
| O=C(O)c1cnc(NCc2ccco2)nc1-c1ccccc1 | 772 |
| COc1ccc(NC(=O)NCCn2c(C(F)(F)F)nc3cccnc32)cc1 | 701 |
| CCCCS(=O)CC(CO)NC(=O)/C=C/c1c(C)[nH]c(=O)[nH]c1=O (stereo not drawn) | 569 |
| CCCS(=O)(=O)N(C)C1CCc2nn(Cc3ccccc3)c(=O)n2CC1 (stereo not drawn) | 755 |
| COCCn1nc2n(c1=O)CCC1(CC2)CCN(C(=O)C2CCOC2)CC1 (stereo not drawn) | 587 |
| O=C(Nc1nc(-c2ccc(Br)cc2)cs1)c1cccc(-n2cnnc2)n1 | 884 |
| COc1cccc(CNS(=O)(=O)c2ccc(-c3c(C)noc3C)cc2)c1 | 904 |
| COCc1nc2c(N)cccn2n1 | 569 |
| CC(C)C[C@H](NC(=O)C1OC1C(=O)O)C(=O)NCCCCN=C(N)N (stereo partly drawn) | 591 |
| CCOc1ccc(CN2C[C@@H]3C(=O)N(Cc4ccc5c(c4)OCO5)C(=O)[C@@H]3C2)cc1 | 658 |
| O=C(NC1CC1)[C@@H]1C[C@H](Oc2ccccc2)CN1C(=O)Cn1c(=O)oc2ccccc21 | 786 |
| O=C(NCCn1ncccc1=O)c1ccc(OCc2nc(-c3ccco3)cs2)cc1 | 690 |
| CC(=O)N1c2ccc(S(=O)(=O)NCCOc3ccc(F)cc3)cc2CC1C (stereo not drawn) | 798 |
| CCCCN(C)c1nc(-c2ccc(C)cc2)nc2ccccc12 | 819 |
| CN(C)c1ncncc1N1CCC(C(=O)NC2CC2)CC1 | 554 |
| c1csc(CN2CCC(Oc3ccccc3-c3nc(-c4cnccn4)no3)C2)c1 (stereo not drawn) | 662 |
| Cc1cccc(Nc2c(-c3ccc4c(c3)OCO4)nc3cnccn23)c1C | 928 |
| O=C(NC1CCCCCC1)C1CCN(c2cn[nH]c(=O)c2)C1 (stereo not drawn) | 652 |
| COc1ccc(C)cc1NC(=O)[C@@H]1[C@H](c2cc(OC)c(OC)c(OC)c2)c2cc3c(cc2[C@H](O)[C@H]1CO)OCO3 | 795 |

| SMILES | RP-LC retention time [s] |
| --- | --- |
| COCC1(O)CCOC2(CCN(Cc3ccc(C)c(C)c3)CC2)C1 (stereo not drawn) | 627 |
| CCn1nc(-c2ccccc2)c(-c2ccccc2)c(C(=O)NCCN(C)C)c1=O | 648 |
| CC1(C)CC(=O)c2cn(-c3ccc(F)cc3)c(=O)c(C(=O)Nc3ccc4c(c3)OCCO4)c2C1 | 1000 |
| CCc1nc(-c2csc(S(=O)(=O)N3CCC(C(=O)NCC4CCCO4)CC3)c2)no1 (stereo not drawn) | 764 |
| Cc1nc(-c2ccncc2)nc2c1CCC(=O)N2C1CCCC1 | 773 |
| O=C(CN1C(=O)c2ccccc2C1=O)Nc1nnc(C2COc3ccccc3O2)o1 (stereo not drawn) | 714 |
| CCC(CO)Nc1nc(NCc2ccccc2)c2ncn(C(C)C)c2n1 (stereo not drawn) | 630 |
| CN(C)CCCNc1ncnc2c1cnn2-c1cccc(Cl)c1 | 653 |
| COc1ccc(NC(=O)Cn2c(C)cc(-c3nnc(-c4ccco4)o3)c2C)cc1Cl | 903 |
| CCCc1sc(NC(=O)Cn2nc3c(cc2=O)CCCC3)nc1C(=O)OC | 840 |
| COc1cc(OC)cc(C(=O)N2C[C@@H]3C[C@H](NC(=O)c4cccs4)[C@H]2C3)c1 | 660 |
| COc1cc(CCC(=O)N2CCN(c3cc(=O)n(C)c(=O)n3C)CC2)cc(OC)c1OC | 647 |
| CCc1ccc(-c2noc(CSc3nc4cc5c(cc4c(=O)n3Cc3ccncc3)OCO5)n2)cc1 | 909 |
| COCC1CN(C2CCC2)CC12CCN(C(=O)c1sccc1C)CC2 (stereo not drawn) | 597 |
| CC1OC1c1ccc(-c2ccc(C3OC3C)cc2)cc1 (stereo not drawn) | 1140 |
| CCOC(=O)CC1C(=O)NCCN1C(=O)COc1ccc(Br)cc1C (stereo not drawn) | 797 |
| CCc1noc(-c2ccc(-n3cnc(C(=O)NC(C)c4ccc(F)cc4)c3)nc2)n1 (stereo not drawn) | 1000 |
| Cc1nnc2n1CCC(NC(=O)c1cscn1)CC2 (stereo not drawn) | 542 |
| O=S(=O)(c1cc(-c2nnc(C3CC3)o2)co1)N1CCN(c2ccccn2)CC1 | 640 |
| O=S(=O)(c1ccc2c(c1)CCC2)N1CCCC1c1nc(-c2cccc(Cl)c2)no1 (stereo not drawn) | 1310 |
| COCCNC(=O)COc1nc(C)nc2onc(-c3ccc(F)cc3)c12 | 782 |
| CCOC(=O)CNC(=O)N1CCCC1c1cccc(F)c1 (stereo not drawn) | 745 |
| O=C(C1CCCCC1)N1CCCN(c2ncccc2-c2nc(C3CC3)no2)CC1 | 1010 |

Next, values leading:

| RP-LC retention time [s] | SMILES |
| --- | --- |
| 700 | CCCNC(=O)C1CCN(c2ccc(SCC(=O)Nc3cc(C)ccc3OC)nn2)CC1 |
| 602 | O=C(C1CCC(=O)N1S(=O)(=O)c1ccccc1)N1CCN(c2ccccn2)CC1 (stereo not drawn) |
| 656 | COc1ccc(C2(C(=O)N3CCCC(Cn4cnc5cccnc54)C3)CC2)cc1 (stereo not drawn) |
| 685 | CCCCN1CCN(C(=O)C2=NN(c3ccc(C)cc3)c3ncccc3S2(=O)=O)CC1 |
| 610 | CCN1CCN(c2cc(C(=O)O)c3cc(NS(=O)(=O)c4cc(C)ccc4C)ccc3n2)CC1 |
| 795 | CCOC(=O)c1[nH]c(C)c(CCC(=O)N2CCC(C(=O)NCCc3ccccc3)CC2)c1C |
| 902 | Cc1cc(C(=O)N2CCCCC2)c2c(=O)n(Cc3ccc4nonc4c3)c(=O)n(C)c2n1 |
| 603 | COc1ccc(S(=O)(=O)N2CCN(c3ccc(Nc4ccccn4)nn3)CC2)cc1C |
| 613 | CCc1nnc2nc(N3CCN(C(=O)COc4ccc(OC)cc4)CC3)cc(C)n12 |
| 770 | CCc1cccc(NC(=O)Nc2cccc(-c3ccc(N4CCOCC4)nn3)c2)c1 |
| 701 | Cc1ccc(S(=O)(=O)N2CCC(CC(=O)N3CCN(c4ccccn4)CC3)CC2)cc1 |
| 1100 | COc1ccccc1-c1noc(Cn2c(=O)n(Cc3ccc(C)cc3)c(=O)c3sccc32)n1 |
| 558 | Cc1nnc2n1CCN(C(=O)c1n[nH]c3ccccc13)C2 |
| 636 | Cc1cc(N2CCN(C)CC2)nc2ccc(NC(=S)N3CCC(Cc4ccccc4)CC3)cc12 |
| 1010 | Cc1ccc2c(c1)N(C(=O)Cn1c(=O)cc(C(=O)N3CCCCC3)c3ccccc31)CCO2 |
| 830 | COCCCNC(=O)C1(C)Cn2nc(-c3ccccc3)cc2C(=O)N1c1ccccc1F (stereo not drawn) |
| 755 | CSc1cccc(NC(=O)Cn2cnc3nc4c(cc3c2=O)CCCC4)c1 |
| 764 | Cc1ccccc1CCNC(=O)c1cc2n(n1)CC(C)(C(=O)NCc1ccccc1)N(C)C2=O (stereo not drawn) |
| 643 | CCn1c(=O)c(N2CCC(C(=O)NCCCN3CCCC3=O)CC2)nc2ccccc21 |
| 840 | O=C1[C@H]2CN(Cc3cc(Cl)ccc3F)C[C@H]2C(=O)N1CCc1ccccc1 |
| 814 | CCC1Oc2ccc(S(=O)(=O)N3CCC(C(=O)Nc4cccc(C)c4)CC3)cc2NC1=O (stereo not drawn) |

| RP-LC retention time [s] | SMILES |
| --- | --- |
| 935 | Cc1nc(-c2csc(S(=O)(=O)N3CCCC(C(=O)Nc4ccc(C#N)cc4)C3)c2)no1 (stereo not drawn) |
| 715 | O=C(NC1CCN(c2cc(-c3cccs3)[nH]n2)C1)c1cccc(F)c1 (stereo not drawn) |
| 769 | CCOC(=O)c1cn(Cc2ccccc2)c2ccccc2c1=O |
| 1060 | CC1=NS(=O)(=O)N(C)C=C1C(=O)OCc1nc(-c2ccc(C(F)(F)F)cc2)no1 |
| 594 | O=C(Cn1nc(C(=O)N2CCOCC2)c2ccccc21)N1CCN(c2ccccn2)CC1 |
| 1120 | CSc1ccccc1NC(=O)c1ccc(COc2ccc(C)cc2)o1 |
| 1170 | Cc1cccc(N2CCN(C(=O)c3ccc4c(c3)N(C)C(=O)C3CCCCN43)CC2)c1C (stereo not drawn) |
| 1270 | O=C(Nc1ccccc1-c1nc2ccccc2s1)c1c(F)cccc1F |
| 704 | O=C1CCCc2c1cc(C(=O)N1CCCCC1)c(=O)n2-c1ccc(F)cc1 |
| 723 | O=C(NCc1ccc(F)cc1Cl)C1CCCN(c2ncnc3nn(-c4ccc(F)cc4)cc23)C1 (stereo not drawn) |
| 622 | CCc1cc(C(c2cccc(F)c2)N2CCN(C)CC2)c(NC(=O)c2ccccc2)s1 (stereo not drawn) |
| 608 | Cc1cc(N2CCN(C(=O)c3ccccc3F)CC2)nc(N2CCOCC2)n1 |
| 740 | O=C(C1CC(=O)N(C2CCCCCC2)C1)N1CCCN(c2ccc(=O)n(-c3ccccc3)n2)CC1 (stereo not drawn) |
| 770 | Cc1cccc(NC(=O)C2CC(=O)N(c3n[nH]c4cccc(F)c34)C2)c1C (stereo not drawn) |
| 598 | Cc1cc(N2CCCC2)n2nc(CN3CCc4ccccc4C3)nc2n1 |
| 663 | Cc1ccc(C)c(NS(=O)(=O)c2cc3n(c2)CCCNC3=O)c1 |
| 680 | Nc1cc(C2CCN(C(=O)c3ccc(F)c(F)c3)CC2)no1 |
| 1000 | Cc1ccc2c(c1)N(Cc1ccccc1F)N=C(C(=O)N1CCCCC1)S2(=O)=O |
| 589 | Cc1ccc(-n2c(=O)n(CC(=O)NCCN3CCN(C)CC3)c3cccnc32)cc1 |
| 1250 | Cn1cc2c3c(cccc31)CN(C(=O)Nc1ccc(Cl)cc1F)CC2 |
| 1020 | Cc1nc(-c2ccc3c(c2)CCN3C(=O)C2COc3ccccc3O2)cs1 (stereo not drawn) |

Reference: the METLIN SMRT retention time set (Domingo-Almenara et al. 2019)
